Results reported in the NIST ThermoML archive (doi:10.1021/je060501l).
Numbers after ± are expanded uncertainties.

Conditions: Liquid

| vapor or sublimation pressure (273.15 K) [kPa] | vapor or sublimation pressure (283.15 K) [kPa] | vapor or sublimation pressure (293.15 K) [kPa] | vapor or sublimation pressure (303.15 K) [kPa] | vapor or sublimation pressure (313.15 K) [kPa] | SMILES |
| --- | --- | --- | --- | --- | --- |
| 265.8 ± 8.6 | 372.8 ± 12 | 513.3 ± 16 | 689.9 ± 22 | 909.4 ± 28 | CC(F)F [1,1-difluoroethane] |
| 472.5 ± 15 | 633.9 ± 20 | 832.94 ± 26 | 1077 ± 34 | 1370 ± 43 | CCC [propane] |
